The results in this text go back to ChEMBL document CHEMBL5512643, “Structure-based discovery of potent myosin inhibitors to guide antiparasite drug development” (Eur J Med Chem, 2024).

Data set [1] can be described thus: Acute toxicity in gold fish infected with Gyrodactylus kobayashii measure upto 48 hrs by microscopic analysis. The settings on record: carassius auratus.
In data set [2] the test system is Gyrodactylus kobayashii. As to the kind of experiment: Antiparasitic activity against Gyrodactylus kobayashii infected in gold fish measured upto 48 hrs by stereomicroscope analysis. Format: functional, organism-based.
The nature of data set [3]: Inhibition of wild type Gyrodactylus kobayashii Myosin ATPase activity incubated for 30 mins.
The subject of data set [4] is Gyrodactylus kobayashii. The data set is described as follows: Binding affinity to Gyrodactylus kobayashii Myosin expressed in Escherichia coli BL21 assessed as thermal stabilization at 1 mM at 40 to 50 degreeC by CETSA analysis.
The nature of data set [5]: Inhibition of Gyrodactylus kobayashii Myosin N439A mutant ATPase activity incubated for 30 min.
The nature of data set [6]: Therapeutic index, ratio of LC50 for acute toxicity in gold fish infected with Gyrodactylus kobayashii to EC50 for antiparasitic activity against Gyrodactylus kobayashii infected in gold fish. The settings on record: goldfish.
Data set [7] concerns SARS-CoV-2. The data set is described as follows: Antiviral activity against SARS-CoV-2 infected in African green monkey Vero cells assessed as inhibition of viral replication pretreated with compound for 2 hr followed by viral infection and measured after 48 hrs by indirect immunofluorescence assay. The settings on record: Severe acute respiratory syndrome coronavirus 2, Vero. The data set is classed as functional, organism-based.

Where [8] appears, read: Gyrodactylus kobayashii, 48 h, read-out: EC50.

Converted amounts (≈) assume the structure as drawn. The source made the active and inactive calls. The calls are words filed in the database; no cut-off is given here.

In turn, `COc1cc(C2Oc3ccc(C4Oc5cc(O)cc(O)c5C(=O)C4O)cc3OC2CO)ccc1O` (configuration not stated) showed a 50% lethal concentration (LC50) at 48 h in data set [1] of 26.2 µg/mL (≈ 54.4 µM). Besides, the EC50 in data set [2] (setting [8]) was found to be 7.53 µg/mL (≈ 15.6 µM).
Consider `O=c1cc(-c2ccccc2)oc2c([C@@H]3OC[C@H](O)[C@H](O)[C@H]3O)c(O)c([C@@H]3O[C@H](CO)[C@@H](O)[C@H](O)[C@H]3O)c(O)c12`, for which, in data set [2] (setting [8]), the EC50 is 7.58 µg/mL (≈ 13.8 µM).
On to `C[C@@H]1O[C@@H](O[C@H]2C(=O)c3c(O)cc(O)cc3O[C@H]2c2ccc(O)c(O)c2)[C@H](O)[C@H](O)[C@H]1O`, for which the LC50 at 48 h in data set [1] stood at 26.5 µg/mL (≈ 58.7 µM). The molecule further showed a 50% lethal concentration (LC50) in data set [1] (48 h) of 24.975 mg/L (≈ 55.5 µM). The 50% effective concentration (EC50) in data set [2] (setting [8]) was determined as 15.9 µg/mL (≈ 35.3 µM).
`C[C@@H]1O[C@@H](Oc2cc(O)c3c(=O)c(O)c(-c4ccc(O)cc4)oc3c2O)[C@H](O)[C@H](O[C@@H]2O[C@H](CO)[C@@H](O)[C@H](O)[C@H]2O)[C@H]1O` yielded a median lethal concentration (LC50) at 48 h in data set [1] of 13.2 µg/mL (≈ 21.7 µM). For the same molecule, the concentration giving a half-maximal response (EC50) in data set [2] (setting [8]) was determined as 11.3 µg/mL (≈ 18.5 µM).
Take `CO[C@H]1C[C@H](O[C@H]2CC[C@]3(C)[C@H]4CC[C@]5(C)[C@@H](C6=CC(=O)OC6)CC[C@]5(O)[C@@H]4CC[C@]3(O)C2)O[C@H](C)[C@H]1O[C@@H]1O[C@H](CO)[C@@H](O)[C@H](O)[C@H]1O`: the LC50 at 48 h in data set [1] turned out to be 4.12 µg/mL (≈ 5.92 µM). In addition, the 50% effective concentration (EC50) in data set [2] (setting [8]) came to 3.89 µg/mL (≈ 5.59 µM).
The matching figures for `Cc1c([C@H](C)[C@@H]2NC[C@@H](C)C[C@H]2O)ccc2c1C[C@H]1[C@H]2CC=C2C[C@@H](O[C@@H]3O[C@H](CO)[C@@H](O)[C@H](O)[C@H]3O)CC[C@@]21C`: 15.2 µg/mL (≈ 26.7 µM) and 4.58 µg/mL (≈ 8.02 µM).
The matching figures for `COC(=O)[C@H]1O[C@@H](Oc2cc3oc(-c4ccc(O)cc4)cc(=O)c3c(O)c2O)[C@H](O)[C@@H](O)[C@@H]1O`: 11.4 µg/mL (≈ 23.9 µM) and 7.23 µg/mL (≈ 15.2 µM).
The matching figures for `C[C@@H]1O[C@@H](Oc2cc(O)c3c(=O)c(O)c(-c4ccc(O)cc4)oc3c2)[C@H](O)[C@H](O)[C@H]1O` [ALPHA-RHAMNOISOROBIN]: 9.3 µg/mL (≈ 21.5 µM) and 8.27 µg/mL (≈ 19.1 µM).
On to `CCCCC[C@H](O)/C=C/[C@H]1[C@H](O)CC(=O)[C@@H]1CCCCCCC(=O)O` [ALPROSTADIL], for which, in data set [1], the LC50 at 48 h is 30.5 µg/mL (≈ 86 µM). Besides, the EC50 in data set [2] (setting [8]) came to 16.2 µg/mL (≈ 45.8 µM).
For `COc1cc(C[C@H]2C(=O)OC[C@@H]2Cc2ccc(OC)c(OC)c2)ccc1O` [ARCTIGENIN], in data set [1], the 50% lethal concentration (LC50) at 48 h amounted to 11.6 µg/mL (≈ 31.2 µM). Moreover, the half-maximal effective concentration (EC50) in data set [2] (setting [8]) was found to be 1.85 µg/mL (≈ 4.97 µM). For the same molecule, the IC50 in data set [3] is 677 µM; in data set [5], 3.21 mM. The result in data set [4] was Active.
In data set [1], `O=C(/C=C/c1ccccc1)c1ccccc1` [CHALCONE] showed an LC50 at 48 h of 7.66 µg/mL (≈ 36.8 µM). Also, the EC50 in data set [2] (setting [8]) turned out to be 1.08 µg/mL (≈ 5.21 µM). The molecule further showed a half-inhibitory concentration (IC50) in data set [3] of 440 µM.
In the case of `O=C1C=CC(=O)c2c(O)cccc21` [JUGLONE], the 50% effective concentration (EC50) in data set [2] (setting [8]) is 0.72 µg/mL (≈ 4.13 µM).
For the molecule `O=C1C=C(O)C(=O)c2ccccc21` [LAWSONE], the 50% lethal concentration (LC50) at 48 h in data set [1] was 10.7 µg/mL (≈ 61.4 µM). Moreover, the EC50 in data set [2] (setting [8]) is 3.53 µg/mL (≈ 20.3 µM). Besides, the selectivity ratio in data set [6] came out at 3.03.
On to `O=C1c2ccccc2C(=O)c2c1cc(O[C@@H]1O[C@H](CO[C@@H]3OC[C@@H](O)[C@H](O)[C@H]3O)[C@@H](O)[C@H](O)[C@H]1O)c(CO)c2O` [LUCIDIN PRIMEVOROSIDE], for which the 50% lethal concentration (LC50) at 48 h in data set [1] was found to be 8.24 µg/mL (≈ 14.6 µM). Moreover, the EC50 in data set [2] (setting [8]) was 4.15 µg/mL (≈ 7.35 µM).
Turning to `CC1=CC(=O)c2ccccc2C1=O` [MENADIONE], the median lethal concentration (LC50) at 48 h in data set [1] stood at 1.19 µg/mL (≈ 6.93 µM). Besides, the EC50 in data set [2] (setting [8]) amounted to 0.341 µg/mL (≈ 1.98 µM). For the same molecule, in data set [6], the selectivity ratio was determined as 3.5.
The matching figures for `O=C1C=CC(=O)c2ccccc21` [NAPHTHOQUINONE]: 0.23 µg/mL (≈ 1.45 µM), 0.047 µg/mL (≈ 0.297 µM) and 4.89.
In the case of `COc1ccc(CCC(=O)c2c(O)cc(O[C@@H]3O[C@H](CO)[C@@H](O)[C@H](O)[C@H]3O[C@@H]3O[C@@H](C)[C@H](O)[C@@H](O)[C@H]3O)cc2O)cc1O` [NEOHESPERIDIN DIHYDROCHALCONE], the LC50 at 48 h in data set [1] stood at 25.5 µg/mL (≈ 41.6 µM). Moreover, the concentration for a half-maximal effect (EC50) in data set [2] (setting [8]) is 13.4 µg/mL (≈ 21.9 µM).
`C#CCC(Cc1cnc2nc(N)nc(N)c2n1)c1ccc(C(=O)N[C@@H](CCC(=O)O)C(=O)O)cc1` (some centres not stated) [PRALATREXATE]: the EC50 in data set [7] came to 8 nM.
The molecule `NC(=O)[C@@H]1CCCN1C(=O)[C@H](Cc1cnc[nH]1)NC(=O)[C@@H]1CCC(=O)N1` [PROTIRELIN] returned a median lethal concentration (LC50) at 48 h in data set [1] of 16.3 µg/mL (≈ 44.9 µM). The EC50 in data set [2] (setting [8]) stood at 9.52 µg/mL (≈ 26.3 µM).
As for `O=C(O)[C@H]1O[C@@H](Oc2cc3oc(-c4ccc(O)cc4)cc(=O)c3c(O)c2O)[C@H](O)[C@@H](O)[C@@H]1O` [SCUTELLARIN], the LC50 at 48 h in data set [1] worked out at 13.3 µg/mL (≈ 28.7 µM). The EC50 in data set [2] (setting [8]) was 7.15 µg/mL (≈ 15.5 µM).
The molecule `CC(C)=CC[C@@H](O)C1=CC(=O)c2c(O)ccc(O)c2C1=O` [SHIKONIN] came in with an LC50 at 48 h in data set [1] of 1.29 µg/mL (≈ 4.47 µM). The figures for the concentration giving a half-maximal response (EC50) in data set [2] and in data set [2] (setting [8]) were 0.37 µg/mL (≈ 1.28 µM) and 0.371 µg/mL (≈ 1.29 µM), respectively. For the same molecule, the IC50 in data set [3] was determined as 140 µM. Also, the selectivity ratio in data set [6] was determined as 3.49.
For `O=C1OC[C@H]2O[C@@H](Oc3cc(O)c(C(=O)CCc4ccccc4)c(O)c3)[C@H](O)[C@@H](O)[C@@H]2OC(=O)c2cc(O)c(O)c(O)c2-c2c1cc(O)c(O)c2O` [THONNINGIANIN B], the LC50 at 48 h in data set [1] stood at 21.5 µg/mL (≈ 29.8 µM). Besides, the EC50 in data set [2] (setting [8]) turned out to be 6.31 µg/mL (≈ 8.73 µM).
